{"source": "ChEMBL document CHEMBL5465560", "about": "“Selectivity Literature for EUbOPEN Chemogenomic Library” (2024)", "key": {"[1]": {"target": "Dual specificity testis-specific protein kinase 2 (Homo sapiens) (UniProt Q96S53)", "assay": "Selectivity interaction (LanthaScreen Eu Kinase Binding Assay) EUB0001632a TESK2", "settings": "at 10 µM"}, "[2]": {"target": "ATPase family AAA domain-containing protein 2B (Homo sapiens) (UniProt Q9ULI0)", "sequence (Q9ULI0 whole entry, the tested form may be a part)": "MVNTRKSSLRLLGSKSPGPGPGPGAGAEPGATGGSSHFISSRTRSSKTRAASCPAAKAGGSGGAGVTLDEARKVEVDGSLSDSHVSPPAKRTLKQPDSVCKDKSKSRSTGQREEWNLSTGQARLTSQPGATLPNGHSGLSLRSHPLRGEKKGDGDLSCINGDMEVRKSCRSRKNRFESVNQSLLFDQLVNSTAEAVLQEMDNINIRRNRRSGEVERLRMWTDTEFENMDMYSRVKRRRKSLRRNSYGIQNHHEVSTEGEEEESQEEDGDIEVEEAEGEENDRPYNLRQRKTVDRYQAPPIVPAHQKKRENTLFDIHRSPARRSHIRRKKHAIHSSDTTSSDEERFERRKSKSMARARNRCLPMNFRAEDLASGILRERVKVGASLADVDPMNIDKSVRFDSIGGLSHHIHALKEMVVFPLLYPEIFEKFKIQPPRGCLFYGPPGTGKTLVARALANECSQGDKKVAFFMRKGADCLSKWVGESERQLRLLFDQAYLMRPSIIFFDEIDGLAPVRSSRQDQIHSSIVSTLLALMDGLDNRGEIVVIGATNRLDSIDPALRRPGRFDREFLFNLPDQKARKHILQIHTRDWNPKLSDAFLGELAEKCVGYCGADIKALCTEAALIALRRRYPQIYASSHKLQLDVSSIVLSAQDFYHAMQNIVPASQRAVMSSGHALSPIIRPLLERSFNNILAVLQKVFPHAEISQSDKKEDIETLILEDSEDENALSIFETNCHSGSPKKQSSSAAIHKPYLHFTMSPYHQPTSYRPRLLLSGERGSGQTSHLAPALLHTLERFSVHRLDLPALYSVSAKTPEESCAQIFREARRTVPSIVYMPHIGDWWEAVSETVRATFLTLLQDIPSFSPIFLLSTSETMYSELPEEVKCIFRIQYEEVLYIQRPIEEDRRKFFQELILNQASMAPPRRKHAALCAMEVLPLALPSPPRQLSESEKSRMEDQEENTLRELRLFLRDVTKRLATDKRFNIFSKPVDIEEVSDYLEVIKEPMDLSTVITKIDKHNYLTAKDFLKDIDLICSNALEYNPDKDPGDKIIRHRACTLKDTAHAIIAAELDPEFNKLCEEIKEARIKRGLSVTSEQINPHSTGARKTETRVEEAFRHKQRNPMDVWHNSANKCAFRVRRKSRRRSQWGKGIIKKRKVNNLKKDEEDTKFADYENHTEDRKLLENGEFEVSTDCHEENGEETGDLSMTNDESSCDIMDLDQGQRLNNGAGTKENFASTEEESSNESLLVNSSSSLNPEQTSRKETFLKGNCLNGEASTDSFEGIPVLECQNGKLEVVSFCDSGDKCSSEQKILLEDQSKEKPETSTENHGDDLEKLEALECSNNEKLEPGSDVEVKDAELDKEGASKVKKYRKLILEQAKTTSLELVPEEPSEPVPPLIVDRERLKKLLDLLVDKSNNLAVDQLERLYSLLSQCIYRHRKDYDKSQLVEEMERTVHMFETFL", "assay": "Selectivity interaction (Human bromodomain panel (DSF assay)) EUB0000233b ATAD2B"}, "[3]": {"target": "T1, Alpha-2C adrenergic receptor (Homo sapiens) (UniProt P18825)", "T1 sequence (whole entry)": "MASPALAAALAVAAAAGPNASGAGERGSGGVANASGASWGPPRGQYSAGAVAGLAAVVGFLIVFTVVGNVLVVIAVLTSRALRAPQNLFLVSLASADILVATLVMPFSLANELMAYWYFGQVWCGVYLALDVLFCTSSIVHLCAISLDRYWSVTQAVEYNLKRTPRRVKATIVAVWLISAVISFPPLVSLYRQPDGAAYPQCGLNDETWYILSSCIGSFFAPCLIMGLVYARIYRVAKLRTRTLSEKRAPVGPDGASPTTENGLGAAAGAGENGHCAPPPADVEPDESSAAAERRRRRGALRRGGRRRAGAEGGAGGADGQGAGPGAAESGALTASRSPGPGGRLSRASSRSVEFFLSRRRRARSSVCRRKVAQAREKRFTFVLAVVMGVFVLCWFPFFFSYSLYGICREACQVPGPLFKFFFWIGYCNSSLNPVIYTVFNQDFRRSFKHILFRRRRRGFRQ", "assay": "Selectivity interaction (Panel of kinases, GPCRs, ion channels and transporters (enzymatic assay)) EUB0000266bCl ADRA2C"}, "[4]": {"target": "Casein kinase I isoform gamma-2 (Homo sapiens) (UniProt P78368)", "sequence (P78368 whole entry, looked up, canonical isoform)": "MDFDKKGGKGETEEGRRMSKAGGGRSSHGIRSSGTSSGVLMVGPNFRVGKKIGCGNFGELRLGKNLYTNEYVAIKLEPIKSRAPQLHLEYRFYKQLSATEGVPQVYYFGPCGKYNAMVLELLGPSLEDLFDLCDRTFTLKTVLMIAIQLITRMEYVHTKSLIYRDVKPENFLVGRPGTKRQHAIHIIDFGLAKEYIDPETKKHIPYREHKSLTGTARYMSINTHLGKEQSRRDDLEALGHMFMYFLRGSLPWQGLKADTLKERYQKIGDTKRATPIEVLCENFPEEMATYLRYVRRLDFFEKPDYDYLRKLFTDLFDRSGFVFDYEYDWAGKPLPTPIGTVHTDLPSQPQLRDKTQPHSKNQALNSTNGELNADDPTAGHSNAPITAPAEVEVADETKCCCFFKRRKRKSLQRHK", "assay": "Selectivity interaction (ActivX KiNativ screen (kinase selectivity in THP-1 cell lysates)) EUB0000639a CSNK1G2", "format": "subcellular", "settings": "lysate"}, "[5]": {"target": "Serine/threonine-protein kinase Nek4 (Homo sapiens) (UniProt P51957)", "sequence (P51957 whole entry, looked up)": "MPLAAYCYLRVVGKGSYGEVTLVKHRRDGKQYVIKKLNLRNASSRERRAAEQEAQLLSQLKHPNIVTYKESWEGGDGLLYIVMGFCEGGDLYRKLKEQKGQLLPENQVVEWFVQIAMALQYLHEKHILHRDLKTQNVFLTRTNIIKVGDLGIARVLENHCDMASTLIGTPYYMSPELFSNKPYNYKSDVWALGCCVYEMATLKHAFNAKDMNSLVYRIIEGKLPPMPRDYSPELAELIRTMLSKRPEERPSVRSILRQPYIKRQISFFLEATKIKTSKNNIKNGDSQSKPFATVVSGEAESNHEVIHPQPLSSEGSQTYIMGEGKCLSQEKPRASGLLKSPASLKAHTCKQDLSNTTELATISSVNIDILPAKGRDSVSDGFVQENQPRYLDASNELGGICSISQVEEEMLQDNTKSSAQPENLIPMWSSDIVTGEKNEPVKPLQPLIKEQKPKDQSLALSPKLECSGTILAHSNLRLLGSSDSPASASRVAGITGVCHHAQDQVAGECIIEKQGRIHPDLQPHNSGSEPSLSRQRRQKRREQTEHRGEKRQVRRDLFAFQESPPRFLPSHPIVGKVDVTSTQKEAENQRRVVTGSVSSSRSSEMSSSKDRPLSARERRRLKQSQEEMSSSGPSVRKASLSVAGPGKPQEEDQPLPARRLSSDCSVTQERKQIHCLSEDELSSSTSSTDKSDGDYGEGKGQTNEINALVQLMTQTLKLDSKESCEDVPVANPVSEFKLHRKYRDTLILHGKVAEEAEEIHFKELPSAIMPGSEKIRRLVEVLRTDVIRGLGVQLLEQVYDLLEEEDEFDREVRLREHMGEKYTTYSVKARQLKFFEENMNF", "assay": "Selectivity interaction (KinomeScan (DiscoverX)) EUB0000695a NEK4", "settings": "at 100 nM"}, "[6]": {"target": "T2, cAMP-dependent protein kinase catalytic subunit PRKX (Homo sapiens) (UniProt P51817)", "T2 sequence (whole entry)": "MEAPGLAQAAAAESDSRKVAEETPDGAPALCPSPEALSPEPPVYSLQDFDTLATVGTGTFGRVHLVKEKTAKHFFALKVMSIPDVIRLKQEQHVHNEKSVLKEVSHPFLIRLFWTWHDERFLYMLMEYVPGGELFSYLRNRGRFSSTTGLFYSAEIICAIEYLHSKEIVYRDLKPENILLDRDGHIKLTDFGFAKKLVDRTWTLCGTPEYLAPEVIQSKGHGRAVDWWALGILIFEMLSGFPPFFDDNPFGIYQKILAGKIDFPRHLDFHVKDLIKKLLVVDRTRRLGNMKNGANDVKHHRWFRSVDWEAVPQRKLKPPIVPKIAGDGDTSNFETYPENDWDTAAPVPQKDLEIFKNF", "settings": "at 10 µM"}, "[7]": {"target": "Platelet-derived growth factor receptor alpha (Homo sapiens, UniProt P16234)", "assay": "Selectivity interaction (KinomeScan (DiscoverX)) EUB0001049a PDGFRA", "settings": "at 1 µM"}, "[8]": {"target": "Focal adhesion kinase 1 (Homo sapiens, UniProt Q05397)", "sequence (Q05397 2-1052 limits assumed)": "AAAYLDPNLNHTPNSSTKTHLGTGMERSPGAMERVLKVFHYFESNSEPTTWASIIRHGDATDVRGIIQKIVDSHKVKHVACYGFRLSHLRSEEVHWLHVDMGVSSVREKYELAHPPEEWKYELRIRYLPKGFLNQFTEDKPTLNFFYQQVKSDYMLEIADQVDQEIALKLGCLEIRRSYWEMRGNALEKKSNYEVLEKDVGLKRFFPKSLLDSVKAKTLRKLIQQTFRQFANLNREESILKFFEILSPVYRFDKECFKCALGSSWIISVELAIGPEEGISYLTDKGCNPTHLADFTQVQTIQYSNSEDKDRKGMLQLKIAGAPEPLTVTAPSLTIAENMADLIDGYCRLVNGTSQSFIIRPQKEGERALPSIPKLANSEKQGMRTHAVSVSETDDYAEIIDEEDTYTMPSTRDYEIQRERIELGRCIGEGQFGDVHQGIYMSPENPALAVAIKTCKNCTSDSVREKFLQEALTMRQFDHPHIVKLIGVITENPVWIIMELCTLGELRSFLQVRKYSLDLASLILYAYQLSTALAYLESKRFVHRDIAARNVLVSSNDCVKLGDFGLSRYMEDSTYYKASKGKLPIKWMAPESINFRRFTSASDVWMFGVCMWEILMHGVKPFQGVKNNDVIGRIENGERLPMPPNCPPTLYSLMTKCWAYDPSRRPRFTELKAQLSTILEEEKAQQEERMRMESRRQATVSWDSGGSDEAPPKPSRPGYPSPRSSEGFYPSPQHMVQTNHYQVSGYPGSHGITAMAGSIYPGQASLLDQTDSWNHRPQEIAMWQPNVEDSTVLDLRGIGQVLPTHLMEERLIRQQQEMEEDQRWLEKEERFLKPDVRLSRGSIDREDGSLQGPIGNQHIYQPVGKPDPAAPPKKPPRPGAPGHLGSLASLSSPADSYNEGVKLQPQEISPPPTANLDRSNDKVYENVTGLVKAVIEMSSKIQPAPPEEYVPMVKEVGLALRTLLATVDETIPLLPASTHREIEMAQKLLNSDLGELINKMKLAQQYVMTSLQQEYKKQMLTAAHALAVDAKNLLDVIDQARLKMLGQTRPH", "assay": "Selectivity interaction (Ambit KINOMEscan and KiNATiv profiling in Jurkat cells) EUB0000090b PTK2", "format": "cell-based", "settings": "at 1 µM"}, "[9]": {"target": "T3, Serine/threonine-protein kinase tousled-like 1 (Homo sapiens) (UniProt Q9UKI8)", "T3 sequence (whole entry)": "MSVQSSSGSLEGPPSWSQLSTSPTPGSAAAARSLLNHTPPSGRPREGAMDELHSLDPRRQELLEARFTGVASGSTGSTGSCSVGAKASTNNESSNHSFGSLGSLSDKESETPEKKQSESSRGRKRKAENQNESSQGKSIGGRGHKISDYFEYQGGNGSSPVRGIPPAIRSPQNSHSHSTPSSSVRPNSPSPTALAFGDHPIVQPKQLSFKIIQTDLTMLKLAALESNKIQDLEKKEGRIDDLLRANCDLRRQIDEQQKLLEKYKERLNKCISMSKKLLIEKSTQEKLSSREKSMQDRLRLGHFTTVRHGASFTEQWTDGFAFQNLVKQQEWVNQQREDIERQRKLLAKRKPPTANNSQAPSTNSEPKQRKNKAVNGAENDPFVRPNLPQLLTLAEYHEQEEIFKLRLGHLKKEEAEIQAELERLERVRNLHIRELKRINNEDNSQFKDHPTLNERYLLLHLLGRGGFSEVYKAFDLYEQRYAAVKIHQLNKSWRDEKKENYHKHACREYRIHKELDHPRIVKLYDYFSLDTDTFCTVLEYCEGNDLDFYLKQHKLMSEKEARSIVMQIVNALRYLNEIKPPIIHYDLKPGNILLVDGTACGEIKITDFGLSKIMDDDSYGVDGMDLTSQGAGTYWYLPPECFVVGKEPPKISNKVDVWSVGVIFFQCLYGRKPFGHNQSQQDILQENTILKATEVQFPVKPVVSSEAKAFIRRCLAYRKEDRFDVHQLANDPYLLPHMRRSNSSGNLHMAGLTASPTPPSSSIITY", "assay": "Selectivity interaction (KinomeScan (DiscoverX)) EUB0001079a TLK1", "settings": "at 1 µM"}, "[10]": {"target": "Bromodomain adjacent to zinc finger domain protein 1A (Homo sapiens) (UniProt Q9NRL2)", "assay": "Selectivity interaction (Bromodomain panel (DSF asssay)) EUB0000270b BAZ1A"}, "[11]": {"target": "T4, Phosphorylase b kinase gamma catalytic chain, liver/testis isoform (Homo sapiens) (UniProt P15735)", "T4 sequence (whole entry)": "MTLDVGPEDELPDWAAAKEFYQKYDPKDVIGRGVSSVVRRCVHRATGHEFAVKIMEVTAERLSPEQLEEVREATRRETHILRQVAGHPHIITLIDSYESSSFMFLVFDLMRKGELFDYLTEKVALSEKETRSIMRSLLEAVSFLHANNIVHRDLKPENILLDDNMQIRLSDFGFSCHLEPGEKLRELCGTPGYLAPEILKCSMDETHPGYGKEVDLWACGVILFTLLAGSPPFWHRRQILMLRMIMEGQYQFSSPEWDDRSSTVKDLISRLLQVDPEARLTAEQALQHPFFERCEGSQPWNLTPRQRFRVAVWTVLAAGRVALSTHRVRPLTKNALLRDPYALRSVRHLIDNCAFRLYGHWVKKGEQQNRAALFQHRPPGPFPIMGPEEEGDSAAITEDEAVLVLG", "settings": "at 10 µM"}, "[12]": {"target": "BMP-2-inducible protein kinase (Homo sapiens) (UniProt Q9NSY1)", "sequence (Q9NSY1 whole entry, looked up)": "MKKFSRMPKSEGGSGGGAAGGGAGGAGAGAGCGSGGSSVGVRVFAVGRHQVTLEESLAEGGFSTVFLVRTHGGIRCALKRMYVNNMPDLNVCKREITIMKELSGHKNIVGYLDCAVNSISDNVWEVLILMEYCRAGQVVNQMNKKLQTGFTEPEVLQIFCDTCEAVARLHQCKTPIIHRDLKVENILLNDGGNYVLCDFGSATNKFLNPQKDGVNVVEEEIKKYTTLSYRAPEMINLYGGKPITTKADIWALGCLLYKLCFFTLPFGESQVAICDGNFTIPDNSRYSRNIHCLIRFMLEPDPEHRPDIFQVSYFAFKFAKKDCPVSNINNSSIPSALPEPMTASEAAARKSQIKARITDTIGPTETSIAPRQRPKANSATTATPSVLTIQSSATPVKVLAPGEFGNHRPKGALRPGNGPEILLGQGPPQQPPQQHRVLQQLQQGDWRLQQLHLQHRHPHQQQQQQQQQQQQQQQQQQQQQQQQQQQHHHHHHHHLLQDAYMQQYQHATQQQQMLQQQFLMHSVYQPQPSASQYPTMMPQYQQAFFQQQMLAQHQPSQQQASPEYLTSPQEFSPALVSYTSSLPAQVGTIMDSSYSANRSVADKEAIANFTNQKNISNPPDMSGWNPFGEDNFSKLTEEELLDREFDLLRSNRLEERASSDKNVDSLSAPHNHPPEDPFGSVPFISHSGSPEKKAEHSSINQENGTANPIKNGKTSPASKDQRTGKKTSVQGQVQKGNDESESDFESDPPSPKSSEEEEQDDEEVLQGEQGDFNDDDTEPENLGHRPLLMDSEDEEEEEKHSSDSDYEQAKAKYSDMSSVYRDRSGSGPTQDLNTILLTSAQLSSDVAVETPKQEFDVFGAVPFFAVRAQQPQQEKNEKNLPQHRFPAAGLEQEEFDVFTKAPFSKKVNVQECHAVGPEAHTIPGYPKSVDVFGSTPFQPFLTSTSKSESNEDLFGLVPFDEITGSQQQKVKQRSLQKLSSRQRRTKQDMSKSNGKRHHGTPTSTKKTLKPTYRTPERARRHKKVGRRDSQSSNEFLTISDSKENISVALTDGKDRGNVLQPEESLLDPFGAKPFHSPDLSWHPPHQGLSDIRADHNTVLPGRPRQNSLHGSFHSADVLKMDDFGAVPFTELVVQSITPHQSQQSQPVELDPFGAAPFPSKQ", "assay": "Selectivity interaction (KinomeScan (DiscoverX)) EUB0000618a BMP2K", "settings": "at 10 µM"}, "[13]": {"target": "Cyclin-dependent kinase 15 (Homo sapiens) (UniProt Q96Q40)", "assay": "Selectivity interaction (KinomeScan (DiscoverX)) EUB0001619a CDK15", "settings": "at 1 µM"}}, "data": [{"compound": "Cn1cc(-n2cnc3c(NCc4nc5cc(Cl)c(Cl)cc5[nH]4)nc(N4CCOCC4)nc32)cn1", "values": [{"measurement": "% of inhibition", "setting": "[1]", "result": 0.732, "unit": "%"}]}, {"compound": "CN(C)CCCOc1ccc(-c2cc(NCCCn3cccn3)nc(S(C)(=O)=O)n2)cc1", "values": [{"measurement": "dTM", "setting": "[2]", "result": "< 2", "unit": "K"}]}, {"compound": "CCn1c(-c2nc3cc(C(=O)N4CCCC(N)C4)ccc3n2C)cc2ccccc21", "note": "(configuration not stated)", "values": [{"measurement": "pXC50", "setting": "[3]", "result": "< 4.5", "unit": "M"}]}, {"compound": "CC[C@@H]1[C@H](F)C(=O)N[C@@H]1COc1nccc2cc(C(N)=O)c(OC)cc12", "note": "[ZIMLOVISERTIB]", "values": [{"measurement": "% of inhibition", "setting": "[4]; at 0.01 µM", "result": 4.3, "unit": "%"}, {"measurement": "% of inhibition", "setting": "[4]; at 0.04 µM", "result": 27.3, "unit": "%"}, {"measurement": "% of inhibition", "setting": "[4]; at 0.2 µM", "result": 67, "unit": "%"}, {"measurement": "% of inhibition", "setting": "[4]; at 1 µM", "result": 91, "unit": "%"}, {"measurement": "% of inhibition", "setting": "[4]; at 5 µM", "result": 96.9, "unit": "%"}]}, {"compound": "Cc1cc(F)c(C(=O)Nc2cccc(-c3nncn3C(C)C)n2)cc1-n1cnc(C2CC2)c1", "values": [{"measurement": "% of control", "setting": "[5]", "result": 100, "unit": "%"}]}, {"compound": "COCC(=O)NC/C=C/c1ccc2ncnc(Nc3ccc(Oc4ccc(C)nc4)c(C)c3)c2c1", "note": "[CP-724714]", "values": [{"measurement": "% of control", "setting": "[6]", "result": 100, "unit": "%"}]}, {"compound": "COc1cc(Nc2nc(C)cc(-c3cnn4nc(OC)ccc34)n2)cc(C(F)(F)F)c1", "values": [{"measurement": "% of control", "setting": "[7]", "result": 69, "unit": "%"}]}, {"compound": "CN(C)C/C=C/C(=O)Nc1ccc(C(=O)N2CCCC(Nc3ncc(Cl)c(-c4c[nH]c5ccccc45)n3)C2)cc1", "note": "(configuration not stated)", "values": [{"measurement": "% of control", "setting": "[8]", "result": 74, "unit": "%"}]}, {"compound": "Nc1cnc(N2CCc3cc(S(=O)(=O)Nc4c(F)cc(Cl)cc4F)cc(N4CCCC4=O)c32)nc1", "note": "[TP-020n]", "values": [{"measurement": "% of control", "setting": "[9]", "result": 100, "unit": "%"}]}, {"compound": "Cc1cc(CN)cc(C)c1-c1ncn(C)c1-c1cncn1C", "values": [{"measurement": "dTM", "setting": "[10]", "result": -1.36, "unit": "K"}]}, {"compound": "Cc1cc([C@@H](C)Nc2ccccc2C(=O)O)c2nc(N3CCOCC3)cc(=O)n2c1", "note": "[AZD-6482]", "values": [{"measurement": "% of control", "setting": "[11]", "result": 100, "unit": "%"}]}, {"compound": "O[C@H]1CC[C@H](Nc2ncc3nc(Nc4c(F)cc(F)cc4F)n([C@H]4CCOC4)c3n2)CC1", "values": [{"measurement": "% of control", "setting": "[12]", "result": 100, "unit": "%"}]}, {"compound": "N#Cc1cccc(-c2c[nH]c3ncnc(N4CCOCC4)c23)c1", "values": [{"measurement": "% of control", "setting": "[13]", "result": 100, "unit": "%"}]}]}
